What was measured:
[1] = system: A-549 (human lung carcinoma); conditions: A-549 cell line
[2] = system: UMUC3 (human bladder carcinoma); conditions: UMUC3 cell line
[3] = system: HT-29 (human colon adenocarcinoma); conditions: HT-29 cell line
[4] = system: PC-3 (human prostate adenocarcinoma); conditions: PC-3 cell line
[5] = system: PACA2 (human pancreatic adenocarcinoma); conditions: PACA2 cell line
[6] = system: A4982LM (human kidney carcinoma); conditions: A4982LM cell line
[7] = system: MDA231 (human breast carcinoma); conditions: MDA231 cell line
[8] = system: FDIGROV (human ovarian carcinoma); conditions: FDIGROV cell line

In the case of `Cc1c(C)[n+](Cc2ccccc2)cn1Cc1ccccc1.[Cl-]` [Compound 1, 1,3-bis(phenylmethyl)-4,5-dimethyl-1H-imidazlium chloride], the “Cytotoxic activity ED50, A-549” value [1] is reported as greater than 10 µg/mL, the “Cytotoxic activity in words, A-549” value [1] is reported as “inactive” and the “Cytotoxic activity ED50, UMUC3” value [2] is reported as greater than 10 µg/mL. The “Cytotoxic activity ED50, HT-29” value [3] was greater than 10 µg/mL, the “Cytotoxic activity in words, HT-29” value [3] was “inactive” and the “Cytotoxic activity ED50, PC-3” value [4] was greater than 10 µg/mL. For the same compound, the “Cytotoxic activity in words, PC-3” value [4] was “inactive”, the “Cytotoxic activity ED50, PACA2” value [5] was greater than 10 µg/mL and the “Cytotoxic activity ED50, A4982LM” value [6] was greater than 10 µg/mL. For the same compound, the “Cytotoxic activity in words, A4982LM” value [6] was “inactive”, the “Cytotoxic activity ED50, MDA231” value [7] was greater than 10 µg/mL and the “Cytotoxic activity ED50, FDIGROV” value [8] was 7.39 µg/mL. The “ED50, FDIGROV” value [8] was 7390 µg/mL.

For `Cc1c(C)[n+](Cc2ccccc2)c(C)n1Cc1ccccc1.[Cl-]` [Compound 2, 1,3-bis(phenylmethyl)-2,4,5-trimethyl-1H-imidazlium chloride], the “Cytotoxic activity ED50, A-549” value [1] was greater than 10 µg/mL, the “Cytotoxic activity in words, A-549” value [1] was “inactive” and the “Cytotoxic activity ED50, UMUC3” value [2] was 6.47 µg/mL. The “Cytotoxic activity ED50, HT-29” value [3] was greater than 10 µg/mL, the “Cytotoxic activity in words, HT-29” value [3] was “inactive” and the “Cytotoxic activity ED50, PC-3” value [4] was greater than 10 µg/mL. The “Cytotoxic activity in words, PC-3” value [4] was “inactive”, the “Cytotoxic activity ED50, PACA2” value [5] was 1.38 µg/mL and the “Cytotoxic activity ED50, A4982LM” value [6] was greater than 10 µg/mL. The “Cytotoxic activity in words, A4982LM” value [6] was “inactive”, the “Cytotoxic activity ED50, MDA231” value [7] was 1.66 µg/mL and the “Cytotoxic activity ED50, FDIGROV” value [8] was 5.26 µg/mL. For the same compound, the “ED50, FDIGROV” value [8] was 5260 µg/mL.
